This note sets out measurements from patent US10829520B2, “Beta-hairpin peptidomimetics” (POLYPHOR AG, priority 2015, dated 2020).

*1 amine or outer side, *2 acyl side, *3 side chain or, on linkers, in order; H or OH if unused. Where a SMILES comes first, the peptide text is derived from it. Bridges are numbered along the chain shown (N, C = ends). Roman numbers before positions name the chains, in order. [ ]: non-standard residue; d: D form. X3 = CNCC[C@H](N[*:1])C(=O)[*:2]; Tle = CC(C)(C)[C@H](N)C(=O)O; dDab = NCC[C@@H](N)C(=O)O; Nle = CCCC[C@H](N)C(=O)O; Orn = NCCC[C@H](N)C(=O)O; Dab = NCC[C@H](N)C(=O)O; Dap = NC[C@H](N)C(=O)O

Assay type in all cases: cell-based
In data set [1] the test system is human red blood cells (hRBC). Description: Hemolysis of human red blood cells. Particulars: red cells of human, 1 h. The method, then: (§1) Lyophilized peptides were weighed on a Microbalance (Mettler MT5) and dissolved in sterile water to a final concentration of 1 mg/mL. Stock solutions were kept at +4° C., light protected.
The peptides were tested for their hemolytic activity against human red blood cells (hRBC). Fresh hRBC were washed three times with phosphate buffered saline (PBS) and centrifuged for 10 min at 2000×g. Compounds (100 μg/mL) were incubated with 20% hRBC (v/v) for 1 h at 37° C. and shaking at 300 rpm. The final erythrocyte concentration was approximately 0.9×10^9 cells/mL. A value of 0% and 100% cell lyses, respectively, was determined by incubation of hRBC in the presence of PBS containing 0.001% acetic acid and 2.5% Triton X-100 in H2O, respectively. The samples were centrifuged, the supernatants were 8-fold diluted in PBS buffer and the optical densities (OD) were measured at 540 nm. The 100% lyses value (OD540H2O) gave an OD540 of approximately 0.5-1.0.
Percent hemolysis was calculated as follows: (OD540peptide/OD540H2O)×100%.

Data set [2] relates to Acinetobacter baumannii DSM 30008. Particulars: DSM 30008. The method, then:
as §1
(§2) The in vitro antimicrobial activities of the peptides were determined in 96-well plates (Greiner, polystyrene) by the standard CLSI broth microdilution method (Clinical and Laboratory Standards Institute 2014. Performance standards for antimicrobial susceptibility testing, 24th informational supplement. Approved standard CLSI M100-S24; Clinical and Laboratory Standards Institute, Wayne, Pa.). Inocula of the microorganisms were diluted into Mueller-Hinton II (MH-cation adjusted) broth and compared with a 0.5 McFarland standard to give appr. 10^6 colony forming units (CFU)/mL. Aliquots (90 μL) of inoculate were added to 10 μL of MH-II broth+P-80 (Polysorbate 80, 0.002% final concentration, v/v) containing the peptide in serial two-fold dilutions. The following microorganisms were used to determine antibiotic activity of the peptides: Escherichia coli ATCC 25922, Klebsiella pneumoniae SSI #3010^a), Acinetobacter baumannii DSM 30008, Pseudomonas aeruginosa ATCC 27853 and the clinical isolates Escherichia coli 926415^b), Klebsiella pneumoniae 968733^b) and Acinetobacter baumannii 872842^b). Antimicrobial activities of the peptides were expressed as the minimal inhibitory concentration (MIC) in μg/mL at which no visible growth was observed after 18-20 hours of incubation at 35° C. ^a) Obtained from Statens Serum Institut (SSI), Copenhagen, Denmark^b) Obtained from International Health Management Associates, Inc. (IHMA Europe Sàrl), Epalinges, Switzerland

In data set [3] the test system is Escherichia coli ATCC 25922. Particulars: ATCC 25922. The method, then:
as §1, §2

The test system of data set [4] is Klebsiella pneumoniae SSI #3010. Particulars: SSI #3010. The method, then:
as §1, §2

The test system of data set [5] is Pseudomonas aeruginosa ATCC 27853. Particulars: ATCC 27853. The method, then: as §1, §2

With `CCCC[C@@H]1NC(=O)[C@@H]2CCCN2C(=O)[C@H]2CCCN2C(=O)[C@H](CO)NC(=O)[C@H](C)NC(=O)[C@H](C(C)(C)C)NC(=O)[C@H](CCC(=O)N[C@@H](CCN)C(=O)N[C@H](C(=O)N[C@@H](CCN)C(=O)N[C@H]2CCNC(=O)[C@H]([C@@H](C)O)NC(=O)[C@H](CCN)NC(=O)[C@H](CCN)NC(=O)[C@H](CC(C)C)NC(=O)[C@@H](Cc3ccccc3)NC(=O)[C@H](CCN)NC2=O)[C@@H](C)O)NC(=O)[C@H](Cc2c[nH]c3ccccc23)NC(=O)[C@H](CCN)NC(=O)[C@@H](CCN)NC(=O)[C@H](CCCN)NC(=O)[C@H](CCN)NC(=O)[C@H](Cc2ccc(O)cc2)NC(=O)[C@H](CO)NC1=O` [Ex. 11] (I: cyclo(WE[Tle]AS[dP]P[Nle]SY[Dab][Orn][dDab][Dab]) / II: [Dab]T[Dab][Dab][Dab][dF]L[Dab][Dab]T; amide I:2-II:N; lactam II:4-II:C), the “Hemolysis at 100 μg/mL” value in data set [1] (100) turned out to be 1%. Moreover, in data set [2], the “Acinetobacter baumannii DSM 30008 MIC” value was 1 µg/mL. The “Escherichia coli ATCC 25922 MIC” value in data set [3] was found to be 2 µg/mL. The “Klebsiella pneumoniae SSI #3010 MIC” value in data set [4] came out at 1 µg/mL. In data set [5], the “Pseudomonas aeruginosa ATCC 27853 MIC” value was 0.5 µg/mL.

Consider `CCCC[C@@H]1NC(=O)[C@@H]2CCCN2C(=O)[C@H]2CCCN2C(=O)[C@H](CO)NC(=O)[C@H](C)NC(=O)[C@H](C(C)(C)C)NC(=O)[C@@H](NC(=O)[C@H](Cc2c[nH]c3ccccc23)NC(C)=O)CSSC[C@@H](C(=O)N[C@@H](CNC(=O)[C@@H](N)CCC(=O)O)C(=O)N[C@H](C(=O)N[C@@H](CCN)C(=O)N[C@H]2CCNC(=O)[C@H]([C@@H](C)O)NC(=O)[C@H](CCN)NC(=O)[C@H](CCN)NC(=O)[C@H](CC(C)C)NC(=O)[C@@H](Cc3ccccc3)NC(=O)[C@H](CCN)NC2=O)[C@@H](C)O)NC(=O)[C@H](Cc2ccc(O)cc2)NC(=O)[C@H](CO)NC1=O` [Ex. 24] (Ac-WC[Tle]AS[dP]P[Nle]SYC[Dap](Glu)T[Dab][Dab][Dab][dF]L[Dab][Dab]T; disulfide 2-11; lactam 15-C), for which, in data set [1] (100 μg/mL), the “Hemolysis at 100 μg/mL” value was determined as 1%. For the same molecule, the “Acinetobacter baumannii DSM 30008 MIC” value in data set [2] is 2 µg/mL. The “Escherichia coli ATCC 25922 MIC” value in data set [3] is 2 µg/mL. Moreover, the “Klebsiella pneumoniae SSI #3010 MIC” value in data set [4] stood at 4 µg/mL. The “Pseudomonas aeruginosa ATCC 27853 MIC” value in data set [5] is 4 µg/mL.

Turning to `CCCC[C@@H]1NC(=O)[C@@H]2CCCN2C(=O)[C@H]2CCCN2C(=O)[C@H](CO)NC(=O)[C@H](C)NC(=O)[C@H](C(C)C)NC(=O)[C@@H](NC(=O)[C@H](Cc2c[nH]c3ccccc23)NC(C)=O)CSSC[C@@H](C(=O)N[C@@H](CCCN)C(=O)N[C@@H](CCN)C(=O)N[C@H]2CCNC(=O)[C@H]([C@@H](C)O)NC(=O)[C@H](CCN)NC(=O)[C@H](CCN)NC(=O)[C@H](CC(C)C)NC(=O)[C@@H](Cc3ccccc3)NC(=O)[C@H](CCN)NC2=O)NC(=O)[C@H](Cc2ccc(O)cc2)NC(=O)[C@H](CO)NC1=O` [Ex. 55] (Ac-WCVAS[dP]P[Nle]SYC[Orn][Dab][Dab][Dab][dF]L[Dab][Dab]T; disulfide 2-11; lactam 14-C), in data set [1] (100 μg/mL), the “Hemolysis at 100 μg/mL” value is on record as 1%. Also, in data set [2], the “Acinetobacter baumannii DSM 30008 MIC” value was 1 µg/mL. Besides, in data set [3], the “Escherichia coli ATCC 25922 MIC” value worked out at 0.5 µg/mL. In addition, in data set [4], the “Klebsiella pneumoniae SSI #3010 MIC” value is 1 µg/mL. Besides, the “Pseudomonas aeruginosa ATCC 27853 MIC” value in data set [5] turned out to be 2 µg/mL.

Regarding `CCCC[C@@H]1NC(=O)[C@@H]2CCCN2C(=O)[C@H]2CCCN2C(=O)[C@H](CO)NC(=O)[C@H](C)NC(=O)[C@H](C(C)(C)C)NC(=O)[C@@H](NC(=O)[C@H](Cc2c[nH]c3ccccc23)NC(C)=O)CC(=O)NCC[C@@H](C(=O)N[C@@H](CCCN)C(=O)N[C@@H](CCN)C(=O)N[C@H]2CCNC(=O)[C@H]([C@@H](C)O)NC(=O)[C@H](CCN)NC(=O)[C@H](CCN)NC(=O)[C@H](CC(C)C)NC(=O)[C@@H](Cc3ccccc3)NC(=O)[C@H](CCN)NC2=O)NC(=O)[C@H](Cc2ccc(O)cc2)NC(=O)[C@H](CO)NC1=O` [Ex. 56] (Ac-WD[Tle]AS[dP]P[Nle]SY[Dab][Orn][Dab][Dab][Dab][dF]L[Dab][Dab]T; lactam 2-11, 14-C), the “Hemolysis at 100 μg/mL” value in data set [1] (100) is recorded as under 1%. The “Acinetobacter baumannii DSM 30008 MIC” value in data set [2] was determined as 2 µg/mL. In addition, in data set [3], the “Escherichia coli ATCC 25922 MIC” value was 0.5 µg/mL. The “Klebsiella pneumoniae SSI #3010 MIC” value in data set [4] was determined as 4 µg/mL. Moreover, the “Pseudomonas aeruginosa ATCC 27853 MIC” value in data set [5] stood at 4 µg/mL.

Take `CCCC[C@@H]1NC(=O)[C@@H]2CCCN2C(=O)[C@H]2CCCN2C(=O)[C@H](CO)NC(=O)[C@H](C)NC(=O)[C@H](C(C)(C)C)NC(=O)[C@H](CCN)NC(=O)[C@H](Cc2c[nH]c3ccccc23)NC(=O)[C@H](CCN)NC(=O)[C@@H](CCN)NC(=O)[C@H](CC(=O)N[C@H]2CCNC(=O)[C@H]([C@@H](C)O)NC(=O)[C@H](CCN)NC(=O)[C@H](CCN)NC(=O)[C@H](CC(C)C)NC(=O)[C@@H](Cc3ccccc3)NC(=O)[C@H](CCN)NC2=O)NC(=O)[C@H](CCN)NC(=O)[C@H](Cc2ccc(O)cc2)NC(=O)[C@H](CO)NC1=O` [Ex. 64] (I: cyclo([Nle]SY[Dab]D[dDab][Dab]W[Dab][Tle]AS[dP]P) / II: [Dab][Dab][dF]L[Dab][Dab]T; amide I:5-II:N; lactam II:1-II:C): the “Hemolysis at 100 μg/mL” value in data set [1] (100) is given as under 1%. Also, the “Acinetobacter baumannii DSM 30008 MIC” value in data set [2] is 1 µg/mL. Moreover, the “Escherichia coli ATCC 25922 MIC” value in data set [3] is 2 µg/mL. Besides, the “Klebsiella pneumoniae SSI #3010 MIC” value in data set [4] came out at 2 µg/mL. Also, the “Pseudomonas aeruginosa ATCC 27853 MIC” value in data set [5] is 4 µg/mL.

In the case of `CCCC[C@@H]1NC(=O)[C@@H]2CCCN2C(=O)[C@H]2CCCN2C(=O)[C@H](CO)NC(=O)[C@H](C)NC(=O)[C@H](C(C)(C)C)NC(=O)[C@H](CCN)NC(=O)[C@H](Cc2c[nH]c3ccccc23)NC(=O)[C@H](CCN)NC(=O)[C@@H](CCN)NC(=O)[C@H](CCC(=O)N[C@@H](CCNC)C(=O)N[C@H]2CCNC(=O)[C@H]([C@@H](C)O)NC(=O)[C@H](CCN)NC(=O)[C@H](CCN)NC(=O)[C@H](CC(C)C)NC(=O)[C@@H](Cc3ccccc3)NC(=O)[C@H](CCN)NC2=O)NC(=O)[C@H](CCN)NC(=O)[C@H](Cc2ccc(O)cc2)NC(=O)[C@H](CO)NC1=O` [Ex. 68] (I: cyclo(W[Dab][Tle]AS[dP]P[Nle]SY[Dab]E[dDab][Dab]) / II: [X3][Dab][Dab][dF]L[Dab][Dab]T; amide I:12-II:N; lactam II:2-II:C), in data set [1] (100), the “Hemolysis at 100 μg/mL” value is given as under 1%. In addition, the “Acinetobacter baumannii DSM 30008 MIC” value in data set [2] was 2 µg/mL. The “Escherichia coli ATCC 25922 MIC” value in data set [3] was 2 µg/mL. For the same molecule, in data set [4], the “Klebsiella pneumoniae SSI #3010 MIC” value amounted to 2 µg/mL. In addition, the “Pseudomonas aeruginosa ATCC 27853 MIC” value in data set [5] is 0.5 µg/mL.

`CC(C)C[C@@H]1NC(=O)[C@H](CCCNC(=N)N)NC(=O)[C@@H](CCN)NC(=O)[C@H](C(C)C)NC(=O)[C@H](C)NC(=O)[C@H](Cc2ccc(O)cc2)NC(=O)[C@H](CCN)NC(=O)[C@H](Cc2c[nH]c3ccccc23)NC(=O)[C@H](CCN)NC(=O)[C@@H](CCN)NC(=O)[C@H](CCC(=O)N[C@@H](CCN)C(=O)N[C@H](C(=O)N[C@@H](CCN)C(=O)N[C@H]2CCNC(=O)[C@H]([C@@H](C)O)NC(=O)[C@H](CCN)NC(=O)[C@H](CCN)NC(=O)[C@H](CC(C)C)NC(=O)[C@@H](CC(C)C)NC(=O)[C@H](CCN)NC2=O)[C@@H](C)O)NC(=O)[C@H](CCN)NC(=O)[C@H](Cc2ccc(O)cc2)NC(=O)[C@H](CO)NC1=O` [Ex. 97] (I: cyclo(AV[dDab]RLSY[Dab]E[dDab][Dab]W[Dab]Y) / II: [Dab]T[Dab][Dab][Dab][dL]L[Dab][Dab]T; amide I:9-II:N; lactam II:4-II:C): in data set [1] (100), the “Hemolysis at 100 μg/mL” value is 1%. Also, in data set [2], the “Acinetobacter baumannii DSM 30008 MIC” value came out at 2 µg/mL. In addition, in data set [3], the “Escherichia coli ATCC 25922 MIC” value is 0.5 µg/mL. For the same molecule, in data set [4], the “Klebsiella pneumoniae SSI #3010 MIC” value is 0.5 µg/mL. For the same molecule, the “Pseudomonas aeruginosa ATCC 27853 MIC” value in data set [5] stood at 0.5 µg/mL.
